Measurements: patent US12685312B2, “Sulfonamide apyrase inhibitors” (Texas Crop Science, Inc., priority 2022, dated 2026)

Tested on: apyrase
Assay: Screen for apyrase inhibitors (Method 1, in vitro phosphate-release absorbance assay)
Assay type: biochemical
Conditions: inhibitor conc at 1 mM stock, 1 hr room temperature, absorbance 630 nm; rounded average of two assay results
Method: Apyrase inhibitors useful as enhancers of pesticidal activity are assessed using an in vitro assay. The method of Windsor, Bio Techniques 33:1024-1030 (November 2002) was used as follows Screen for Apyrase Inhibitors- 96 well plates were used for the assay: (Greiner bio-one: REF-655901-96 well, PS, F-bottom, Clear, Non-binding) Buffers: • Reaction Buffer: 60 mM Hepes; 3 mM MgCl2, 3 mM CaCl2 and 3 mM ATP (pH 6.5) • Development Buffer A: 2% aqueous ammonium molybdate • Development Buffer B: 11% ascorbic acid in 37.5% TCA in water • Stop buffer C: 2% trisodium citrate in 2% acetic acid solution in water • Add 100 μl of reaction buffer to each well. • Add 10 μl of DMSO (control) or inhibitor/compound or compounds such as […] or orthovanadate to each well. […] A blank cell indicates either <10% observed inhibition or a large difference between repetitions. In certain examples, the lack of observed inhibition is due to a lack of solubility of the compound under assay conditions, rather than a lack of apyrase inhibitory activity.

Row | SMILES | % Inhibition of Apyrase [%]
1 | Cc1cccc(NS(=O)(=O)c2ccc(C(=O)Nc3cccc(C#N)c3)cc2)c1C [I-206, N-(3-cyanophenyl)-4-(N-(2,3-dimethylphenyl)sulfamoyl)benzamide] | 74
2 | O=C(Nc1cccc(S(=O)(=O)Nc2ccc(Br)cc2)c1)c1ccsc1 [I-207, N-(3-(N-(4-bromophenyl)sulfamoyl)phenyl)thiophene-3-carboxamide] | 74
3 | O=C(c1ccc(S(=O)(=O)Nc2ccc(Cl)cc2)cc1)N1CCc2ccccc21 [I-208, N-(4-chlorophenyl)-4-(indoline-1-carbonyl)benzenesulfonamide] | 66
4 | N#Cc1cc(C(=O)Nc2cccc(NS(=O)(=O)c3ccccc3)c2)ccc1Cl [I-210, 4-chloro-3-cyano-N-(3-(phenylsulfonamido)phenyl)benzamide] | 73
5 | CCOc1ccc(NS(=O)(=O)c2ccc(C(=O)Nc3cccc(C#N)c3)cc2)cc1 [I-211, N-(3-cyanophenyl)-4-(N-(4-ethoxyphenyl)sulfamoyl)benzamide] | 76
6 | O=C(Nc1cccc(NS(=O)(=O)c2ccc(Cl)cc2)c1)c1cc(F)ccc1F [I-212, N-(3-((4-chlorophenyl)sulfonamido)phenyl)-2,5-difluorobenzamide] | 69
7 | Cc1cccc(NC(=O)c2cccc(S(=O)(=O)N3CCc4ccccc43)c2)c1 [I-214, 3-(indolin-1-ylsulfonyl)-N-(m-tolyl)benzamide] | 71
8 | CN(c1ccccc1)S(=O)(=O)c1ccccc1C(=O)Nc1ccc(S(=O)(=O)N2CCCC2)cc1 [I-215, 2-(N-methyl-N-phenylsulfamoyl)-N-(4-(pyrrolidin-1-ylsulfonyl)phenyl)benzamide] | 58
9 | O=C(Nc1ccc(F)cc1)c1cccc(S(=O)(=O)Nc2ccc3c(c2)OCO3)c1 [I-216, 3-(N-(benzo[d][1,3]dioxol-5-yl)sulfamoyl)-N-(4-fluorophenyl)benzamide] | 71
10 | O=C1CCc2cc(S(=O)(=O)Nc3cccc(C(=O)Nc4cccc(C(F)(F)F)c4)c3)ccc2N1 [I-218, 3-((2-oxo-1,2,3,4-tetrahydroquinoline)-6-sulfonamido)-N-(3-(trifluoromethyl)phenyl)benzamide] | 62
11 | O=C(Nc1ccc(F)c(F)c1)c1cccc(S(=O)(=O)Nc2ccc3c(c2)OCO3)c1 [I-220, 3-(N-(benzo[d][1,3]dioxol-5-yl)sulfamoyl)-N-(3,4-difluorophenyl)benzamide] | 68
12 | O=C(Nc1cccc(F)c1)c1ccc(S(=O)(=O)Nc2ccc(Cl)cc2)cc1 [I-223, 4-(N-(4-chlorophenyl)sulfamoyl)-N-(3-fluorophenyl)benzamide] | 74
13 | O=C(Nc1ccc(OC(F)F)cc1)c1ccccc1S(=O)(=O)Nc1cccc(C(F)(F)F)c1 [I-224, N-(4-(difluoromethoxy)phenyl)-2-(N-(3-(trifluoromethyl)phenyl)sulfamoyl)benzamide] | 67
14 | Cc1ccc(NC(=O)c2ccc(S(=O)(=O)Nc3cccc(C(F)(F)F)c3)cc2)c(C)c1 [I-225, N-(2,4-dimethylphenyl)-4-(N-(3-(trifluoromethyl)phenyl)sulfamoyl)benzamide] | 72
15 | Cc1ccc(S(=O)(=O)Nc2cccc(NC(=O)c3ccc4c(c3)OCCO4)c2)cc1C [I-227, N-(3-((3,4-dimethylphenyl)sulfonamido)phenyl)-2,3-dihydrobenzo[b][1,4]dioxine-6-carboxamide] | 71
16 | COc1ccc(NC(=O)c2ccccc2NS(=O)(=O)c2cccc(C(F)(F)F)c2)cc1OC [I-228, N-(3,4-dimethoxyphenyl)-2-((3-(trifluoromethyl)phenyl)sulfonamido)benzamide] | 55

Second part, the molecule after the results:

Row | % Inhibition of Apyrase [%] | SMILES
17 | 66 | Cc1ccc(NC(=O)c2cccc(S(=O)(=O)Nc3ccc4c(c3)OCO4)c2)cc1C [I-230, 3-(N-(benzo[d][1,3]dioxol-5-yl)sulfamoyl)-N-(3,4-dimethylphenyl)benzamide]
18 | 58 | Cc1ccc(NC(=O)c2ccccc2NS(=O)(=O)c2cccc(C(F)(F)F)c2)cc1 [I-231, N-(p-tolyl)-2-((3-(trifluoromethyl)phenyl)sulfonamido)benzamide]
19 | 65 | O=C(Nc1cccc(S(=O)(=O)Nc2ccc(Br)cc2)c1)c1ccc2c(c1)OCO2 [I-232, N-(3-(N-(4-bromophenyl)sulfamoyl)phenyl)benzo[d][1,3] dioxole-5-carboxamide]
20 | 51 | CN(c1ccccc1)S(=O)(=O)c1ccccc1C(=O)Nc1ccc(C#N)cc1 [I-235, N-(4-cyanophenyl)-2-(N-methyl-N-phenylsulfamoyl)benzamide]
21 | 76 | C#Cc1cccc(NC(=O)c2cccc(S(=O)(=O)Nc3ccc(Cl)cc3)c2)c1 [I-237, 3-(N-(4-chlorophenyl)sulfamoyl)-N-(3-ethynylphenyl)benzamide]
22 | 74 | Cc1ccccc1NC(=O)c1cccc(S(=O)(=O)Nc2ccc3c(c2)OCO3)c1 [I-238, 3-(N-(benzo[d][1,3]dioxol-5-yl)sulfamoyl)-N-(o-tolyl)benzamide]
23 | 71 | O=C(NC12CC3CC(CC(C3)C1)C2)c1cccc(S(=O)(=O)Nc2ccc(Br)cc2)c1 [I-240, N-(adamantan-1-yl)-3-(N-(4-bromophenyl)sulfamoyl)benzamide]
24 | 71 | O=C(Nc1ccc(Cl)c([N+](=O)[O-])c1)c1cccc(S(=O)(=O)Nc2cc(C(F)(F)F)ccc2Cl)c1 [I-241, N-(4-chloro-3-nitrophenyl)-3-(N-(2-chloro-5-(trifluoromethyl)phenyl)sulfamoyl)benzamide]
25 | 69 | CC1Cc2ccccc2N1S(=O)(=O)c1cccc(C(=O)Nc2ccc(F)c([N+](=O)[O-])c2)c1 (stereo not shown) [I-242, N-(4-fluoro-3-nitrophenyl)-3-((2-methylindolin-1-yl)sulfonyl)benzamide]
26 | 69 | O=C(Nc1ccc(OC(F)F)cc1)c1cccc(S(=O)(=O)Nc2ccc3c(c2)OCO3)c1 [I-243, 3-(N-(benzo[d][1,3]dioxol-5-yl)sulfamoyl)-N-(4-(difluoromethoxy)phenyl)benzamide]
27 | 68 | O=C(NC1CCCc2ccccc21)c1cccc(S(=O)(=O)Nc2ccc(Br)cc2)c1 (stereo not shown) [I-244, 3-(N-(4-bromophenyl)sulfamoyl)-N-(1,2,3,4-tetrahydronaphthalen-1-yl)benzamide]
28 | 67 | Cc1ccc(NC(=O)c2cccc(S(=O)(=O)Nc3ccc4c(c3)OCO4)c2)cc1 [I-245, 3-(N-(benzo[d][1,3]dioxol-5-yl)sulfamoyl)-N-(p-tolyl)benzamide]
29 | 66 | COc1ccc(NC(=O)c2cccc(S(=O)(=O)Nc3ccc(Cl)cc3)c2)cc1 [I-246, 3-(N-(4-chlorophenyl)sulfamoyl)-N-(4-methoxyphenyl)benzamide]
30 | 65 | O=C(c1cccc(S(=O)(=O)Nc2ccc(Br)cc2)c1)N1CCN(c2cccc(Cl)c2)CC1 [I-247, N-(4-bromophenyl)-3-(4-(3-chlorophenyl)piperazine-1-carbonyl)benzenesulfonamide]
31 | 64 | CSc1cccc(NC(=O)c2cccc(S(=O)(=O)Nc3ccc4c(c3)OCO4)c2)c1 [I-248, 3-(N-(benzo[d][1,3]dioxol-5-yl)sulfamoyl)-N-(3-(methylthio)phenyl)benzamide]
